From patent US20030004140A1, “Methods for modulating cell-adhesion mediated drug resistance” (priority 2000, published 2003) come the findings set out here.

Assay [1] has as its system K562 cells. Description: Annexin V apoptosis analysis, FN adhered vs suspension. Type of assay: cell-based.
Assay [2] has as its system 8226/S cells. Description: Adhesion of 8226 cells to fibronectin after bisphosphonate treatment. Type of assay: cell-based, human. As to conditions: 100 micromolar for 1.5 hours before plating.
The subject of assay [3] is K562 cells. Description: MTT cytotoxicity assay, FN adhered vs suspension. Type of assay: cell-based. As to the method:
Plastic 96-well Immunosorp plates (Nunc, Denmark) are coated with 50 μl (40 μg/ml) FN (Life Technologies) or BSA overnight. Cells are washed once and resuspended in serum-free RPMI 1640, then 2×10^4 (K562) cells are added to each FN coated well. 8×10^3 (K562) cells are added to BSA coated wells. Cells are incubated for 2 hours at 37° C., washed with serum free media, and put back into serum-containing media. Following 24 hours in a tissue culture incubator, drug or vehicle control is added to each well for 90 minutes, media is removed and replaced by drug-free media for 96 hours. In some experiments, the drug is allowed to remain in each well for 96 hours. 50 μl 3-[4,5-Dimethylthiazol-2-yl]-2,5-diphenyltetrazolium bromide; Thiazolyl blue (MTT dye) (Sigma) is added to each well for 4 hours, plates are centrifuged and each well aspirated. Dye is solubilized with 100 μl DMSO and plates are read at 540 nm on an automated microtiter plate reader. A blank well containing only medium and drug is also run as a control in all experiments. IC50 values are calculated by linear regression analysis of percent survival vs. drug concentration.
The MTT assay is used to detect differences in the drug sensitivity of FN adhered vs. suspension-cultured cells following a 90 minutes or 96 hours (continuous) exposure to either mitoxantrone or melphalan (L-phenylalanine mustard or LPAM). After a 96 hour period in a cell incubator, cell survival is determined by the ability of viable cells to reduce MTT dye to formazan. IC50 values are derived through linear regression of the log-linear dose-response plots for each cell line to each drug. Student's T-test is used to analyze differences in drug response using data collected from at least three different experiments. FIGS. 8A and 8B depict representative continuous exposure experiments using mitoxantrone and LPAM, respectively.
On the technique in general: Tetrazolium dyes change colour on reduction, which living cells bring about.

The test system of assay [4] is BCR/ABL-associated tyrosine kinase activity. Nature of the assay: Anti-phosphotyrosine Western blotting. As to conditions: K562 cells, 20 μM, 4 hour treatment.
For assay [5], the system named is K562 cells. Description: Adhesion of K562 cells to FN in presence of BCR/ABL inhibitor. In kind it is cell-based. The note with it: at the concentrations of inhibitor used in cytotoxicity assays. As to the method: Cellular adhesion to FN is determined. In some experiments, cells are pre-incubated for 15 minutes with P4G9, P1D6, P4C10, B3B11, or isotype antibody controls prior to application to wells.
The BCR/ABL kinase is believed to be critical to the survival of CML cells through its effects on a number of signal transduction pathways. Inhibitors of this fusion protein show promise as apoptosis-inducing drugs in CML cells. BCR/ABL inhibition by relatively high doses of the tyrphostin AG957 can have negative effects on FN adhesion. At the concentrations of inhibitor used in cytotoxicity assays, the adhesion of K562 cells to FN is not affected by more than 20-40 percent.

The test system of assay [6] is 8226/S myeloma cells. Nature of the assay: MTT cytotoxicity assay, FN-adhered vs BSA/non-adhered cells. Type of assay: cell-based, human. The note with it: for pIC50: Homo sapiens; for mean difference FN-adhered vs BSA: n=3, 1 hour drug exposure.
Assay [7] relates to K562/pcDNA3.1 cells. Nature of the assay: Annexin V apoptosis, FN adhesion with integrin blocking antibodies. In kind it is cell-based. The note with it: 100 μM, 90 minutes.
In assay [8] the test system is K562/VLA-4 cells. Described as above. Type of assay: cell-based. The note with it: 100 μM, 90 minutes.
In assay [9] the test system is 8226/S myeloma cells. Nature of the assay: Annexin V flow cytometry analysis of apoptosis, FN-adhered vs non-adhered. In kind it is cell-based, human. A general note: Flow cytometry measures light scatter and fluorescence of single cells or particles in a stream.
The subject of assay [10] is 8226/S. Type of assay: cell-based, human.
[11] abbreviates: α4 blocking antibody prior to FN adhesion.
The mark [12] stands for this setting: α5 blocking antibody prior to adhesion.
Setting [13] is: 1 uM, 1 hour exposure, Annexin V 24 hours later.

pIC50: −log10 of the molar value. Where two headings read alike, the source gives them in different places. Marks after values point to notes of the source that are not given here.

For the compound `CC[C@]1(O)C[C@H]2CN(CCc3c([nH]c4ccccc34)[C@@](C(=O)OC)(c3cc4c(cc3OC)N(C=O)[C@H]3[C@@](O)(C(=O)OC)[C@H](OC(C)=O)[C@]5(CC)C=CCN6CC[C@]43[C@@H]65)C2)C1` [VCR, vincristine], in [1] (10 μM, cont. exp.), the “% Control death” value is listed as 70.2%, the “FN: mean death” value is recorded as 12.5 ± 2.3% and the “Suspension: mean death” value is 17.8 ± 6.4%.
In the case of `NCCC(O)(P(=O)(O)O)P(=O)(O)O` [Pamidronate, 3-Amino-1-hydroxypropane-1,1-diphosphonic acid], the “effect on adhesion to fibronectin (FN) coated plates” value in [2] is on record as “effective in preventing FN adhesion”.
What is called pIC50 is the negative decadic logarithm of the IC50, by convention in mol/L. As for `O=C1c2c(O)ccc(O)c2C(=O)c2c(NCCNCCO)ccc(NCCNCCO)c21` [Mitoxantrone, mitoxantrone], the “% Control death” value in assay [1] (10 μM, cont. exp.) is reported as 69.4* %; in assay [1] (50 μM, 1 hr), 58.3* %. Moreover, the “FN: mean death” value in [1] (10 μM, cont. exp.) was 29.7 ± 6.2%; in assay [1] (50 μM, 1 hr) it was 27.0 ± 9.4%. Also, the “Suspension: mean death” value in [1] (10 μM, cont. exp.) was determined as 42.8 ± 8.4%; in [1] (50 μM, 1 hr), 46.3 ± 8.4%. Besides, the “Fold resistance (FN adhered over suspension)” value (shortened to “Fold resistance”) is on record as 3.72 fold in assay [3] (90 min. exposure); “approximately 3.7 fold” in assay [3] (90 min. exposure, listed as mitoxantrone); 6.83 fold in [3] (continuous exposure (96 hours)); 6.8 fold in [3] (continuous exposure (96 hours), listed as mitoxantrone). The pIC50 in assay [3] (Homo sapiens, K562, 1.5 h, 90 min. exposure, read-out: Suspension mean IC50) is 6.69; in assay [3] (Homo sapiens, K562, 1.5 h, FN adhered, 90 min. exposure, read-out: Fibronectin mean IC50) it was 6.12; in [3] (Homo sapiens, K562, FN adhered, continuous exposure (96 hours), read-out: Fibronectin mean IC50) it was 6.49; in assay [3] (Homo sapiens, K562, continuous exposure (96 hours), read-out: Suspension mean IC50), 7.32.
Take `COC(=O)c1ccc(NCc2cc(O)ccc2O)cc1` [AG957]: the “BCR/ABL associated tyrosine phosphorylation” value in assay [4] was “completely abrogated”. Also, the negative-log IC50 (pIC50) in [3] (FN adhered, continuous exposure (96 hours), read-out: Fibronectin mean IC50) is 4.89; in assay [3] (continuous exposure (96 hours), read-out: Suspension mean IC50), 5.44. Moreover, the “Fold resistance” value in assay [3] (continuous exposure (96 hours)) amounted to 3.6 fold. In addition, the “effect on adhesion of K562 cells to FN” value in [5] is 20-40%.
For `Nc1ccn([C@@H]2O[C@H](CO)[C@@H](O)[C@@H]2O)c(=O)n1` [Ara-C], in assay [1] (100 μM, cont. exp.), the “% Control death” value was 54.9* %, the “FN: mean death” value was 6.2 ± 1.6% and the “Suspension: mean death” value is given as 11.3 ± 5.5%.
In the case of `O=P(O)(O)C(O)(Cn1ccnc1)P(=O)(O)O` [Zoledronate], in [2], the “effect on adhesion to fibronectin (FN) coated plates” value is given as “effective in preventing FN adhesion”.
Same read-out and setting: the entry for `O=C(O)CN(CCN(CC(=O)O)CC(=O)O)CC(=O)O` [EDTA] is “does not significantly affect cellular adhesion”.
As to `N[C@@H](Cc1ccc(N(CCCl)CCCl)cc1)C(=O)O` [LPAM, L-phenylalanine nitrogen mustard], the negative logarithm of the IC50 (pIC50) in [6] (1 h, read-out: mean IC50, cells grown on BSA) is 4.52; in assay [6] (read-out: mean IC50, FN-adhered cells), 4.32; in assay [3] (Homo sapiens, K562, 1.5 h, read-out: Fibronectin mean IC50), 3.72; in assay [3] (Homo sapiens, K562, 1.5 h, read-out: Suspension mean IC50) it was 4.53; in [3] (Homo sapiens, K562, 96 h, read-out: Fibronectin mean IC50) it was 4.24; in assay [3] (Homo sapiens, K562, 96 h, read-out: Suspension mean IC50) it was 4.59. The “mean difference FN-adhered vs BSA” value in assay [6] is 1.7. Also, the “level of cytoprotection by FN adhesion (in comparison to drug treated suspension cells)” value in [7] (adhered through α5 alone) amounted to 29.9±5.3%; in [8] (adhering through α4 and α5), 30.0±1.5%. Also, the “level of cytoprotection by FN adhesion” value in [7] (setting [11]) came to 29.6±2.3%; in assay [7] (setting [12]) it was 0±11.1%; in [8] (setting [11]), 28.4±5.0%; in [8] (setting [12]), 20.6±1.9%. Further, the “% Control death” value is recorded as 29.3* % in assay [1] (100 μM, 1 hr) and 58.5* % in [1] (100 μM, cont. exp.). Besides, the “FN: mean death” value is on record as 11.0 ± 8.3% in [1] (100 μM, 1 hr) and 23.3 ± 6.4% in assay [1] (100 μM, cont. exp.). Also, the “Suspension: mean death” value is on record as 37.5 ± 24.0% in [1] (100 μM, 1 hr) and 39.8 ± 3.2% in assay [1] (100 μM, cont. exp.). The “Fold resistance” value in assay [3] (continuous exposure (96 hours)) is 2.25 fold. The “percentage of apoptotic cells, FN-adhered” value in assay [9] (50 uM, 24 hours) came out at 16.53%. Moreover, the “percentage of apoptotic cells, non-adhered” value in assay [9] (50 uM, 24 hours) came to 21.5%. The “effect on cell surface integrin expression” value in assay [10] was “no immediate effects”.
For the compound `COc1cccc2c1C(=O)c1c(O)c3c(c(O)c1C2=O)C[C@@](O)(C(=O)CO)C[C@@H]3O[C@H]1C[C@H](N)[C@H](O)[C@H](C)O1` [doxorubicin], in assay [6] (FIG. 1, one hour drug exposure), the “Response lower in FN-adhered cells compared to non-adhered controls” value was 12.6 fold. For the same compound, the pIC50 is 7.07 in assay [6] (1 h, grown in suspension, one hour drug exposure, representative experiment FIG. 1, read-out: IC50, non-adhered cells); 6.28 in assay [6] (1 hour drug exposure, n=3, read-out: mean IC50, cells grown on BSA); 5.79 in assay [6] (24 hour pre-adhesion, 1 hour drug exposure, n=3, read-out: mean IC50, FN-adhered cells); 6.31 in assay [6] (FN-adhered 24 hours prior to one hour drug exposure, representative experiment FIG. 1, read-out: IC50, adhered cells). For the same compound, the “mean difference FN-adhered vs BSA” value in assay [6] was 6.9. The “survival (mitogenic effect)” value in [6] (subtoxic concentrations, FN-adhered cells) is listed as more than 100%. In addition, in assay [9] (setting [13]), the “percentage of apoptotic cells, FN-adhered” value is listed as 16.3%. Moreover, the “percentage of apoptotic cells, non-adhered controls” value in assay [9] (setting [13]) is 40.3%. Also, the “effect on cell surface integrin expression” value in assay [10] (acute exposure, wide range of concentrations, 1-48 hours) was “no immediate effects”.
